Measurements taken from PMC4277619, “Design, Synthesis and Cytotoxicity Evaluationof New 1,2-diaryl-4, 5, 6, 7-Tetrahydro-1H-benzo[d] Imidazolesas Tubulin Inhibitors” (Iranian Journal of Pharmaceutical Research : IJPR, 2015).

Legend:
[1] = tested on: T47D; test: MTT assay, cytotoxicity against T47D breast cancer cells; type: cell-based, human; conditions: for IC50: Homo sapiens, T47D cells, 24 h incubation, MTT; for SI T47D: selectivity index = IC50 Fibroblast / IC50 T47D
Protocol: (§1) Fibroblast, MCF7 (human breast cancer), HEPG2 (human liver carcinoma), A549 (human lung cancer) and T47D (human breast cancer) cell lines were purchased from Pasteur Institute, Tehran, Iran. The cells were grown in RPMI1640 medium at 37 °C under 5% CO2 supplemented with 10% heat inactivated fetal bovine serum (FBS), 100 U/mL penicillin and 100 µg/mL streptomycin. Cell viability was evaluated using MTT method which is based on the reduction of 3-(4,5-dimethylthiazol-2-yl)-2,5-diphenyltetrazolium bromide (MTT) dye to purple formazan crystals by mitochondrial succinate dehydrogenase enzyme in living cells. The cells were seeded into 96-well plates at a concentration of 6000 cells/well and allowed to incubate for 24 h. The medium was then discarded and different concentrations of the test compounds dissolved in complete medium, were added to each well. After further incubation for 24 h at 37 °C, the medium was aspirated and 100 µL MTT (2 mg/mL) was added to the wells and incubated for 3 h at 37 °C. The produced formazan crystals were dissolved in 100 µL of DMSO. Plates were incubated for 20 min at 37 °C and the optical densities were read at 570 nm with a reference wavelength of 630 nm as background using a spectrophotometer plate reader (Infinite® M200, TECAN). Colchicine was used as positive control and DMSO as the solvent of the test compounds and its final concentration was less than 0.2%. IC50 was calculated by calibration curve using Prism software. All the tests were performed in triplicates.

[2] = tested on: A549; test: MTT assay, cytotoxicity against A549 lung cancer cells; type: cell-based, human; conditions: for IC50: Homo sapiens, A549 cells, 24 h incubation, MTT; for SI A549: selectivity index = IC50 Fibroblast / IC50 A549
Protocol: as §1

[3] = tested on: HEPG2; test: MTT assay, cytotoxicity against HEPG2 liver carcinoma cells; type: cell-based, human; conditions: for IC50: Homo sapiens, HEPG2 cells, 24 h incubation, MTT; for SI HEPG2: selectivity index = IC50 Fibroblast / IC50 HEPG2
Protocol: as §1

[4] = tested on: MCF-7; test: MTT assay, cytotoxicity against MCF-7 breast cancer cells; type: cell-based, human; conditions: for IC50: Homo sapiens, MCF7, MCF-7 cells, 24 h incubation, MTT; for SI MCF-7: selectivity index = IC50 Fibroblast / IC50 MCF-7
Protocol: as §1

[5] = tested on: Fibroblast; test: MTT assay, cytotoxicity against normal fibroblast cells; type: cell-based; conditions: Homo sapiens, 24 h incubation
Protocol: as §1

SMILES | melting point [°C] | IC50 [1] [µM] | SI T47D [1] | IC50 [2] [µM] | SI A549 [2] | IC50 [3] [µM] | SI HEPG2 [3] | IC50 [4] [µM] | SI MCF-7 [4] | IC50 [5] [µM]
COc1cc(-c2nc3c(n2-c2ccc(O)cc2)CCCC3)cc(OC)c1OC [Compound 7c, 4-[2-(3,4,5-Trimethoxyphenyl)-4,5,6,7-tetrahydro-1H-benzoimidazole-1-yl]-phenol] | 259 to 260 | 41.2 | 2 | > 100 | – | 19.6 | 4.11 | > 100 | – | 80.8
COc1cccc(-n2c(-c3cc(OC)c(OC)c(OC)c3)nc3c2CCCC3)c1 [Compound 7b, 1-(3-Methoxyphenyl)-2-(3,4,5-trimethoxyphenyl)-4,5,6,7-tetrahydro-1H-benzoimidazole] | – | > 100 | – | 30.4 | – | > 100 | – | > 100 | – | > 100
COc1cc(-c2nc3c(n2-c2cccc(Cl)c2)CCCC3)cc(OC)c1OC [Compound 7f, 1-(3-Chlorophenyl)-2-(3,4,5-trimethoxyphenyl)-4,5,6,7-tetrahydro-1H-benzoimidazole] | – | 58.6 | 1.5 | > 100 | – | 43.8 | 2 | 77.9 | 1.12 | 87.3
COc1ccc(-n2c(-c3cc(OC)c(OC)c(OC)c3)nc3c2CCCC3)cc1 [Compound 7a, 1-(4-Methoxyphenyl)-2-(3,4,5-trimethoxyphenyl)-4,5,6,7-tetrahydro-1H-benzoimidazole] | 110 to 111 | 41.1 | 0.69 | 83.6 | 0.34 | 22.5 | 1.26 | 54.8 | 0.52 | 28.5

Second part, led by results:

melting point [°C] | SMILES | IC50 [1] [µM] | SI T47D [1] | IC50 [2] [µM] | SI A549 [2] | IC50 [3] [µM] | SI HEPG2 [3] | IC50 [4] [µM] | SI MCF-7 [4] | IC50 [5] [µM]
157 to 158 | COc1cc(-c2nc3c(n2-c2ccc(Cl)cc2)CCCC3)cc(OC)c1OC [Compound 7e, 1-(4-Chlorophenyl)-2-(3,4,5-trimethoxyphenyl)-4,5,6,7-tetrahydro-1H-benzoimidazole] | 34.5 | 1.6 | 87 | 0.62 | 15.6 | 3.46 | 36.4 | 1.48 | 54
152 to 154 | COc1cc(-c2nc3c(n2-c2ccc(F)cc2)CCCC3)cc(OC)c1OC [Compound 7d, 1-(4-Fluorophenyl)-2-(3,4,5-trimethoxyphenyl)-4,5,6,7-tetrahydro-1H-benzoimidazole] | 30 | 2 | 86.5 | 0.68 | 19.4 | 3.06 | 62.3 | 0.95 | 59.5
